Data: ChEMBL document CHEMBL1140824, “Hepatoselectivity of statins: design and synthesis of 4-sulfamoyl pyrroles as HMG-CoA reductase inhibitors” (Bioorg Med Chem Lett, 2008)

What was measured:
[1] = molecular target: T1, 3-hydroxy-3-methylglutaryl-coenzyme A reductase (Rattus norvegicus, UniProt P51639); assay: Inhibition of rat microsomal HMGCoA reductase
T1 sequence (P51639 whole entry): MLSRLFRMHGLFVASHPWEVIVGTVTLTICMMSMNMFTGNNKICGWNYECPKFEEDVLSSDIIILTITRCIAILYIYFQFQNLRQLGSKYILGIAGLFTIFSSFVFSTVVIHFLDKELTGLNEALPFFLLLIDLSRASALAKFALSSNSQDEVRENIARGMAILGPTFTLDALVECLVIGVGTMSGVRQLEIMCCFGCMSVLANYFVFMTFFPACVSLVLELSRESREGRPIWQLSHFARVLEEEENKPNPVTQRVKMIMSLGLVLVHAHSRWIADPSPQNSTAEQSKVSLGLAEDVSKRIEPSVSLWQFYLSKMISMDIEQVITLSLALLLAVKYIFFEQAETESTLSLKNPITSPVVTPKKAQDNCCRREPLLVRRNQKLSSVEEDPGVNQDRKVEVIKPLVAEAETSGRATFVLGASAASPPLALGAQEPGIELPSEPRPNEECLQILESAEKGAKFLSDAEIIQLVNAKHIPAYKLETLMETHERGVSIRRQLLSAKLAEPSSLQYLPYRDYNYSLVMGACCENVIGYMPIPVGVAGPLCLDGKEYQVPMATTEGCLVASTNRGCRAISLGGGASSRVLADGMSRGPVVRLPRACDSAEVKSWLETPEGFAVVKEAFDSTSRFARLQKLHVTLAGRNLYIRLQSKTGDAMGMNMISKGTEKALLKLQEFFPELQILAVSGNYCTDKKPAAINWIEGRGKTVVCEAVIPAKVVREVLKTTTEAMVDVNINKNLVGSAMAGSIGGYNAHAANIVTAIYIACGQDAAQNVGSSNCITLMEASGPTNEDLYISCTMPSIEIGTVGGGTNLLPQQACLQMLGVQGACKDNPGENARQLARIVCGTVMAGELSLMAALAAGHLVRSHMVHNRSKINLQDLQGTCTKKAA

Hepatocyte [2] = assay: Inhibition of cholesterol synthesis in rat hepatocyte; type: functional, cell-based
L6 = assay: Inhibition of cholesterol synthesis in rat L6 myocyte; type: functional, cell-based
Hepatocyte [3] = assay: Selectivity, ratio of IC50 for rat L6 myocyte to IC50 for rat hepatocyte; type: functional
Mus musculus = assay: Inhibition of acute cholesterol synthesis in mouse at 1 mg/kg; type: functional; details: read-out: Inhibition
Syrian golden hamster = assay: Reduction of LDL cholesterol level in syrian golden hamster plasma; type: functional, Mesocricetus auratus
[4] = Cmax in human; type: ADME, organism-based; details: in vivo
[5] = Ratio of Cmax for human to IC50 for rat L6 myocyte; type: functional
Homo sapiens = species on record: Homo sapiens; assay: Incidence of myalgia in human; type: ADME, organism-based; details: in vivo

Row | Compound | IC50 [1] [nM] | Cmax [4] [nM] | IC50 (Hepatocyte [2]) [nM] | IC50 (L6) [nM] | Ratio IC50 (Hepatocyte [3]) | inhibition in vivo at 1 mg/kg (Mus musculus) [%] | Inhibition (Syrian golden hamster) [%] | Ratio [5] | Activity (Homo sapiens) [%]
1 | CC(C)c1c(S(=O)(=O)N2CCc3ccccc3C2)c(-c2ccc(F)cc2)c(-c2ccc(F)cc2)n1CC[C@@H](O)C[C@@H](O)CC(=O)[O-].[Na+] | 8.4 | – | 2.5 | 2500 | 984 | – | – | – | –
2 | CC(C)c1c(S(=O)(=O)Nc2ccccc2)c(-c2ccc(F)cc2)c(-c2ccc(F)cc2)n1CC[C@@H](O)C[C@@H](O)CC(=O)[O-].[Na+] | 2 | – | 0.96 | 45 | 45 | – | – | – | –
3 | CC(C)c1c(S(=O)(=O)NCc2ccccc2)c(-c2ccc(F)cc2)c(-c2ccc(F)cc2)n1CC[C@@H](O)C[C@@H](O)CC(=O)[O-].[Na+] | 13 | – | 0.37 | 2200 | 5945 | 58.6 | – | – | –
4 | CC(C)c1c(S(=O)(=O)N2CCC2)c(-c2ccccc2)c(-c2ccc(F)cc2)n1CC[C@@H](O)C[C@@H](O)CC(=O)[O-].[Na+] | 1.8 | – | 1.1 | 2150 | 1954 | 34.8 | – | – | –
5 | CC(C)c1c(S(=O)(=O)N(C)C)c(-c2ccc(F)cc2)c(-c2ccc(F)cc2)n1CC[C@@H](O)C[C@@H](O)CC(=O)[O-].[Na+] | 6.1 | – | 0.75 | 1400 | 1866 | 58.8 | 30 | – | –
6 | CC(C)c1c(S(=O)(=O)Nc2ccc(S(N)(=O)=O)cc2)c(-c2ccc(F)cc2)c(-c2ccc(F)cc2)n1CC[C@@H](O)C[C@@H](O)CC(=O)[O-].[Na+] | 4.9 | – | 2.7 | 4380 | 1622 | 15 | – | – | –
7 | CC(C)c1c(S(=O)(=O)N2CCOCC2)c(-c2ccccc2)c(-c2ccc(F)cc2)n1CC[C@@H](O)C[C@@H](O)CC(=O)[O-].[Na+] | – | – | 0.8 | 10000 | 12469 | 55.6 | 11 | – | –
8 | CC(C)c1c(S(=O)(=O)Nc2cccc(CC(N)=O)c2)c(-c2ccc(F)cc2)c(-c2ccc(F)cc2)n1CC[C@@H](O)C[C@@H](O)CC(=O)[O-].[Na+] | 1 | – | 1.4 | 10000 | 7299 | – | – | – | –
9 | CC(C)c1c(S(=O)(=O)N2CCN(C)CC2)c(-c2ccccc2)c(-c2ccc(F)cc2)n1CC[C@@H](O)C[C@@H](O)CC(=O)[O-].[Na+] | 2.7 | – | 3 | 10500 | 3559 | – | – | – | –
10 | CC(C)c1c(S(=O)(=O)Nc2ccc(C(N)=O)cc2)c(-c2ccc(F)cc2)c(-c2ccc(F)cc2)n1CC[C@@H](O)C[C@@H](O)CC(=O)[O-].[Na+] | 5.8 | – | 1.8 | 2340 | 1300 | 34.4 | – | – | –
11 | CC(C)c1c(S(=O)(=O)N2CCCCC2)c(-c2ccccc2)c(-c2ccc(F)cc2)n1CC[C@@H](O)C[C@@H](O)CC(=O)[O-].[Na+] | 2.9 | – | 0.67 | 7000 | 10479 | 56 | – | – | –
12 | CC(C)c1c(S(=O)(=O)Nc2ccc(F)cc2)c(-c2ccc(F)cc2)c(-c2ccc(F)cc2)n1CC[C@@H](O)C[C@@H](O)CC(=O)[O-].[Na+] | 15 | – | 0.47 | 60 | 127 | 51.8 | – | – | –
13 | CNS(=O)(=O)c1c(-c2ccc(F)cc2)c(-c2ccc(F)cc2)n(CC[C@@H](O)C[C@@H](O)CC(=O)O)c1C(C)C | 27 | – | 0.22 | – | – | 33 | – | – | –
14 | CC(C)c1c(C(=O)Nc2ccccc2)c(-c2ccccc2)c(-c2ccc(F)cc2)n1CC[C@@H](O)C[C@@H](O)CC(=O)O [ATORVASTATIN] | – | – | 0.99 | 142 | – | 75.2 | – | – | –
15 | COCc1c(C(C)C)nc(C(C)C)c(/C=C/[C@@H](O)C[C@@H](O)CC(=O)O)c1-c1ccc(F)cc1 [CERIVASTATIN] | – | 25 | – | 7 | 4.1 | – | – | 3.6 | –

Now from value to compound, other results behind:

Row | IC50 [1] [nM] | Cmax [4] [nM] | Compound | IC50 (Hepatocyte [2]) [nM] | IC50 (L6) [nM] | Ratio IC50 (Hepatocyte [3]) | inhibition in vivo at 1 mg/kg (Mus musculus) [%] | Inhibition (Syrian golden hamster) [%] | Ratio [5] | Activity (Homo sapiens) [%]
16 | 9.4 | – | CC(C)c1c(S(=O)(=O)Nc2cccc(O)c2)c(-c2ccc(F)cc2)c(-c2ccc(F)cc2)n1CC[C@@H](O)C[C@@H](O)CC(=O)[O-].[Na+] | 0.4 | 2500 | 6250 | 44.2 | – | – | –
17 | 9.7 | – | CC(C)c1c(S(=O)(=O)N2CCSCC2)c(-c2ccc(F)cc2)c(-c2ccc(F)cc2)n1CC[C@@H](O)C[C@@H](O)CC(=O)[O-].[Na+] | 3.3 | 5700 | 1748 | 15 | – | – | –
18 | 18 | – | CC(C)c1c(S(=O)(=O)Nc2cccc(C(N)=O)c2)c(-c2ccc(F)cc2)c(-c2ccc(F)cc2)n1CC[C@@H](O)C[C@@H](O)CC(=O)[O-].[Na+] | 5 | 36000 | 7340 | – | – | – | –
19 | 8.5 | – | CC(C)c1c(S(=O)(=O)N(C)Cc2ccccc2)c(-c2ccccc2)c(-c2ccc(F)cc2)n1CC[C@@H](O)C[C@@H](O)CC(=O)[O-].[Na+] | 0.25 | 140 | 566 | – | – | – | –
20 | 9 | – | CC(C)c1c(S(=O)(=O)Nc2ccccc2)c(-c2ccccc2)c(-c2ccc(F)cc2)n1CC[C@@H](O)C[C@@H](O)CC(=O)[O-].[Na+] | 0.57 | 20 | 34 | 49.2 | – | – | –
21 | 8 | – | CC(C)c1c(S(=O)(=O)N(C)Cc2ccccc2)c(-c2ccc(F)cc2)c(-c2ccc(F)cc2)n1CC[C@@H](O)C[C@@H](O)CC(=O)[O-].[Na+] | 0.69 | 550 | 797 | – | – | – | –
22 | 2.6 | – | CC(C)c1c(S(=O)(=O)N2CCCC2)c(-c2ccccc2)c(-c2ccc(F)cc2)n1CC[C@@H](O)C[C@@H](O)CC(=O)[O-].[Na+] | 0.5 | 5200 | 10400 | 75.9 | 38 | – | –
23 | 6.5 | – | CC(C)c1c(S(=O)(=O)N(C)C)c(-c2ccccc2)c(-c2ccc(F)cc2)n1CC[C@@H](O)C[C@@H](O)CC(=O)[O-].[Na+] | 0.45 | 1380 | 3066 | – | – | – | –
24 | – | 100 | CC[C@H](C)C(=O)O[C@H]1C[C@H](O)C=C2C=C[C@H](C)[C@H](CC[C@@H](O)C[C@@H](O)CC(=O)O)[C@H]21 [PRAVASTATIN] | – | – | 444 | – | – | 0.01 | 10.9
25 | 3.7 | 75 | CC(C)c1nc(N(C)S(C)(=O)=O)nc(-c2ccc(F)cc2)c1/C=C/[C@@H](O)C[C@@H](O)CC(=O)O [ROSUVASTATIN] | – | – | 926 | 82.4 | 62 | 0.3 | –
26 | – | 120 | CCC(C)(C)C(=O)O[C@H]1C[C@@H](C)C=C2C=C[C@H](C)[C@H](CC[C@@H]3C[C@@H](O)CC(=O)O3)[C@H]21 [SIMVASTATIN] | – | 150 | – | – | – | – | 18.2
